Assay results reported in patent US20240327359A1, “3-ISOXAZOLIDINONE COMPOUND, PREPARATION METHOD, HERBICIDAL COMPOSITION AND APPLICATION THEREOF” (QINGDAO KINGAGROOT CHEMICAL COMPOUND CO., LTD., priority 2021, published 2024).

What was measured:
Assay in all cases: Activity test of the compositions, post-emergence treatment by foliage spray
Format in all cases: in vivo
[1] = tested on: Echinochloa crusgalli; details: foliage (F)
Procedure: (§1) The desired active ingredient B was purchased from a reagent company or synthesized by a known method. The technical materials were all dissolved in acetone and diluted with an aqueous solution containing 0.10% emulsifier Tween-80 which were to be used immediately after dilution.
(§2) Weeds were cultivated by a pot culture method. […] Weed seeds with plump and uniform grains were selected, soaked in lukewarm water at 25° C. for 6 hours, and germinated in a 28° C. biochemical incubator (in darkness). The weed seeds that had just germinated were evenly placed on the surface of the soil and then covered with 0.5-1 cm soil according to the sizes of seeds.
(§3) The culture was carried out in a controllable sunlight greenhouse at 20 to 30° C., in natural light, and with relative humidity of 57% to 72%.
(§4) Each treatment was repeated 4 times. Four pots with 20 weed seeds per pot were treated each time.
(§5) The agents were used for only once in total in the experiment. In the stage of 1.5-2 leaves, the weeds were thinned out to maintain 10 weeds per pot. Ten weeds were kept in each treatment, then continued to be cultured until Echinochloa crus-galli var. zelayensis reached the stage of 2-3 leaves, Cirsium setosum reached the stage of 5-6 leaves, Galium aparine reached the stage of 3-4 whorl leaves, Amaranthus retroflexus reached the stage of 3-5 leaves, Echinochloa crusgalli, Lolium multiflorum and Digitaria sanguinalis reached the stage of 3 leaves with one leaf not fully expanding for further treatment.
(§6) The well-cultured test materials were evenly placed on a platform with an area of 0.5 m^2, and solution of agents was sprayed on the stems and leaves thereof by the 3WP-2000-type walking spray tower at a dosage of 450 kg/ha and at a spray pressure of 0.3 MPa. After all the solution was sprayed, the valve was closed. After 30 seconds, the door of the spray tower was opened, and the nutritional bowl was taken out. Then the valve was opened, and the spray tube was cleaned by spraying 50 ml of water. After the treatment, the weeds were routinely cultured in a greenhouse.
(§7) A method for investigating absolute numbers was employed. Whole seedlings of survival weeds were cut off with a blade along the soil surface, and the fresh weight of the weeds was weighed with an analytical balance. For dead weeds, the fresh weight thereof was zero.
(§8) The investigation was performed 21 days after the treatment for only once in total.

[2] = tested on: Galium aparine; details: foliage (F)
Procedure: as §1, §2, §4, §5, §6, §7, §8

[3] = tested on: Echinochloa crus-galli var. zelayensis; details: Echinochloa crusgalli var. zelayensis, foliage (F)
Procedure: as §1, §2, §3, §4, §5, §6, §7, §8

[4] = tested on: Amaranthus retroflexus; details: foliage (F)
Procedure: as §1, §2, §3, §4, §5, §6, §7, §8

[5] = tested on: Lolium multiflorum; details: foliage (F)
Procedure: as §1, §2, §3, §4, §5, §6, §7, §8

[6] = tested on: Digitaria sanguinalis
Procedure: as §1, §2, §3, §4, §5, §6, §7, §8

SMILES: COC(=O)CCNC(=O)C(C)Sc1cc(-n2c(=O)cc(C(F)(F)F)n(C)c2=O)c(F)cc1Cl (centres unmarked) [tiafenacil]
- Control effect (%) of B applied alone (B) ([1]; B 0.5 g a.i./mu): 33.4%
- Control effect (%) of B applied alone (B) ([1]; B 1 g a.i./mu): 45.9%

SMILES: Nc1c(Cl)c(F)nc(OCC(=O)O)c1Cl [fluroxypyr]
- Control effect (%) of B applied alone (B) ([2]; B 4 g a.i./mu): 29.4%
- Control effect (%) of B applied alone (B) ([2]; B 8 g a.i./mu): 46.1%

SMILES: CCn1ncc(C(=O)c2ccc(S(C)(=O)=O)c(COCC(F)(F)F)c2Cl)c1OC(=O)c1cn(C)nc1C [fenpyrazone]
- Control effect (%) of B applied alone (B) ([1]; B 1.5 g a.i./mu): 32.6%
- Control effect (%) of B applied alone (B) ([1]; B 3 g a.i./mu): 50.7%

SMILES: CCC(=O)Nc1ccc(Cl)c(Cl)c1 [propanil]
- Control effect (%) of B applied alone (B) ([3]; B 16 g a.i./mu): 16.8%
- Control effect (%) of B applied alone (B) ([3]; B 32 g a.i./mu): 31.2%

SMILES: COc1c(Cl)ccc(Cl)c1C(=O)O [dicamba]
- Control effect (%) of B applied alone (B) ([2]; B 4 g a.i./mu): 28.6%
- Control effect (%) of B applied alone (B) ([2]; B 8 g a.i./mu): 39.7%

SMILES: CS(=O)(=O)NC(=O)c1cc(Oc2ccc(C(F)(F)F)cc2Cl)ccc1[N+](=O)[O-] [fomesafen]
- Control effect (%) of B applied alone (B) ([4]; B 4 g a.i./mu): 38.1%
- Control effect (%) of B applied alone (B) ([4]; B 8 g a.i./mu): 47.5%

SMILES: COc1ncc(F)c2nc(S(=O)(=O)Nc3c(F)cccc3F)nn12 [florasulam]
- Control effect (%) of B applied alone (B) ([2]; B 0.1 g a.i./mu): 31.5%
- Control effect (%) of B applied alone (B) ([2]; B 0.2 g a.i./mu): 44.1%

SMILES: C[C@@H](Oc1nc(F)c(Cl)c(N)c1Cl)C(=O)OCC1CCCO1 (some centres unmarked)
- Control effect (%) of B applied alone (B) ([5]; B 8 g a.i./mu): 30.7%
- Control effect (%) of B applied alone (B) ([5]; B 16 g a.i./mu): 44.1%

SMILES: COC(=O)c1ccc(CNS(C)(=O)=O)cc1S(=O)(=O)NC(=O)Nc1nc(OC)cc(OC)n1 [mesosulfuron-methyl]
- Control effect (%) of B applied alone (B) ([5]; B 0.25 g a.i./mu): 31.5%
- Control effect (%) of B applied alone (B) ([5]; B 0.5 g a.i./mu): 44.3%

SMILES: CCCCCCCC(=O)Oc1c(Br)cc(C#N)cc1Br [bromoxynil octanoate]
- Control effect (%) of B applied alone (B) ([4]; B 6 g a.i./mu): 38.2%
- Control effect (%) of B applied alone (B) ([4]; B 12 g a.i./mu): 49.5%

SMILES: CS(=O)(=O)c1ccc(C(=O)C2C(=O)CCCC2=O)c([N+](=O)[O-])c1 [mesotrione]
- Control effect (%) of B applied alone (B) ([6]; foliage (F), B 2.5 g a.i./mu): 38.6%
- Control effect (%) of B applied alone (B) ([6]; foliage (F), B 5 g a.i./mu): 52.1%

SMILES: Cc1nn(C)cc1C(=O)Oc1c(C(=O)c2ccc(C(F)(F)F)cc2S(C)(=O)=O)c(C)nn1C [bipyrazone]
- Control effect (%) of B applied alone (B) ([2]; B 0.75 g a.i./mu): 33.6%
- Control effect (%) of B applied alone (B) ([2]; B 1.5 g a.i./mu): 46.2%

SMILES: COc1cnc(OC)n2nc(NS(=O)(=O)c3c(OCC(F)F)cccc3C(F)(F)F)nc12 [penoxsulam]
- Control effect (%) of B applied alone (B) ([1]; B 0.5 g a.i./mu): 52.7%
- Control effect (%) of B applied alone (B) ([1]; B 1 g a.i./mu): 61.7%

SMILES: COc1c(Cl)ccc(-c2nc(C(=O)O)c(Cl)c(N)c2F)c1F [florpyrauxifen]
- Control effect (%) of B applied alone (B) ([1]; B 0.5 g a.i./mu): 22.5%
- Control effect (%) of B applied alone (B) ([1]; B 1 g a.i./mu): 41.3%

SMILES: Cn1[nH]c(C2CC2)c(C(=O)c2ccc(C(F)(F)F)c(N3CCCCC3=O)c2Cl)c1=O [cypyrafluone]
- Control effect (%) of B applied alone (B) ([5]; B 3 g a.i./mu): 26.7%
- Control effect (%) of B applied alone (B) ([5]; B 6 g a.i./mu): 38.9%

SMILES: O=C(O)c1c(Cl)ccc2cc(Cl)cnc12 [quinclorac]
- Control effect (%) of B applied alone (B) ([3]; B 4 g a.i./mu): 22.5%
- Control effect (%) of B applied alone (B) ([3]; B 8 g a.i./mu): 41.4%

SMILES: CC(C)c1nn(C(=O)NC(C)(C)C)c(=O)n1N [amicarbazone]
- Control effect (%) of B applied alone (B) ([1]; B 4 g a.i./mu): 29.8%
- Control effect (%) of B applied alone (B) ([1]; B 8 g a.i./mu): 37.2%

SMILES: Cc1ccc2c(c1)[C@H](Nc1nc(N)nc(C(C)F)n1)[C@@H](C)C2 (some centres unmarked) [indaziflam]
- Control effect (%) of B applied alone (B) ([6]; foliage treatment (F), B at 0.8 g a.i./mu, 21 days): 36.4%
- Control effect (%) of B applied alone (B) ([6]; foliage treatment (F), B at 1.6 g a.i./mu, 21 days): 52.1%

SMILES: COc1cc(OC)nc(Oc2cccc(Oc3nc(OC)cc(OC)n3)c2C(=O)O)n1 [bispyribac]
- Control effect (%) of B applied alone (B) ([1]; B 0.6 g a.i./mu): 30.7%
- Control effect (%) of B applied alone (B) ([1]; B 1.2 g a.i./mu): 42. %

SMILES: CCCN(CCC)C(=O)SCc1ccccc1 [prosulfocarb]
- Control effect (%) of B applied alone (B) ([2]; B 50 g a.i./mu): 40.5%
- Control effect (%) of B applied alone (B) ([2]; B 100 g a.i./mu): 56.1%

SMILES: Cc1cc(C)n(Cc2c(S(C)(=O)=O)ccc(C(=O)c3c(C)nn(C)c3OC(=O)c3cn(C)nc3C)c2Cl)n1 [tripyrasulfone]
- Control effect (%) of B applied alone (B) ([1]; B 4 g a.i./mu): 26.7%
- Control effect (%) of B applied alone (B) ([1]; B 8 g a.i./mu): 46.1%

SMILES: COc1c(Cl)ccc(-c2cc(N)c(Cl)c(C(=O)O)n2)c1F [halauxifen]
- Control effect (%) of B applied alone (B) ([2]; B 0.2 g a.i./mu): 26.4%
- Control effect (%) of B applied alone (B) ([2]; B 0.4 g a.i./mu): 37.2%

SMILES: Cc1cc(Cl)ccc1OCC(=O)O [MCPA]
- Control effect (%) of B applied alone (B) ([2]; B 20 g a.i./mu): 33.1%
- Control effect (%) of B applied alone (B) ([2]; B 40 g a.i./mu): 46.7%

SMILES: COc1cc(OC)nc(NC(=O)NS(=O)(=O)c2ncccc2C(=O)N(C)C)n1 [nicosulfuron]
- Control effect (%) of B applied alone (B) ([6]; foliage (F), B 1 g a.i./mu): 29.7%
- Control effect (%) of B applied alone (B) ([6]; foliage (F), B 2 g a.i./mu): 47.6%

SMILES: CCC[S@@+]([O-])c1c(C(F)(F)F)ccc(C(=O)Nc2nnc(C)o2)c1F
- Control effect (%) of B applied alone (B) ([1]; B 1.5 g a.i./mu): 33.8%
- Control effect (%) of B applied alone (B) ([1]; B 3 g a.i./mu): 49.7%
